According to patent US10106580B2, “Enopeptins, uses thereof, and methods of synthesis thereto” (Brown University, priority 2011, dated 2018):
≈ marks a conversion by molar mass, not a printed value. Numbered stars: 1 amine (or outer) side, 2 acyl side, 3 side chain; on linkers, the order of the positions; unused ones are H or OH. Bridge positions count the residues as written; N and C are the ends. Square brackets hold non-standard residues; d marks the D form. Peptide text beside a SMILES is read from it. * marks the point of attachment. Phe(3-F) = N[C@@H](Cc1cccc(F)c1)C(=O)O; X2 = CC1CCN([*:1])[C@@H](C(=O)[*:2])C1; X1 = CC1CCN([*:1])[C@H](C(=O)[*:2])C1; X3 = CCC(CC)(C(=O)[*:2])N(C)[*:1]; Heptenoyl(2E) = CCCC/C=C/C(=O)*; NMeAc6c = CNC1(C(=O)O)CCCCC1; NMeAc5c = CNC1(C(=O)O)CCCC1; NMeAc4c = CNC1(C(=O)O)CCC1

How the values were obtained:
[1] = system: Methicillin-susceptible S. aureus (ATCC 35556); experiment: Broth dilution MIC/MBC vs methicillin-susceptible S. aureus; format: cell-based, Staphylococcus aureus; details: for MIC / MBC: Staphylococcus aureus, ATCC 35556 / MSSA, MSSA (ATCC 35556); for MBC: 99.9% kill after 24 h
From the text: (§1) The naturally occurring enopeptins and the synthetic derivative ADEP 4 are reported to have strong antibacterial activity (see, e.g., Hinzen et al., Chem Med Chem 2006, 1, 689). Broth dilution assays were used to determine the MICs of the acyldepsipeptide derivatives 10a-h against both ATCC strains and clinical isolates of S. epidermis, S. aureus, and Enterococci obtained from patients of the Veterans Affairs Medical Center in Providence, R.I. Clinical isolates were included to gain a better indication of the potential of these new antibacterial agents (see, e.g., Clinical and Laboratory Standard Institute (CLSI) Methods for dilution antimicrobial susceptibility tests for bacteria that grow aerobically M07-A8; CLSI 8th ed., Wayne, Pa., 2009; Clinical Laboratory Standards Institute (CLSI) Performance standards for antimicrobial susceptibility testing M100-S19. CLSI 19th informational suppl., Wayne, Pa. 2009). In the interest of assessing the cell-killing ability of these compounds, the minimal bactericidal concentrations (MBC) of the compounds was also determined against the aformentioned strains. The MIC was defined as the lowest concentration of an antimicrobial agent visually inhibiting more than 99% of the colonies.
(§2) Minimum inhibitory concentrations (MIC) were determined in duplicate using methods outlined by The Clinical and Laboratory Standards Institute. Compounds were dissolved in DMSO and fresh cation-adjusted Mueller-Hinton broth (SMHB; Difco Laboratories, Sparks, Md., USA; 25 μg/mL calcium and 12.5 μg/mL magnesium) was used to dilute antimicrobial agents in a serial 2-fold schedule. Colony counts for the inoculum verification was determined using Tryptic Soy Agar plates (TSA, Difco, Becton Dickinson Co., Sparks, Md., USA). Following incubation, 100 μL of broth was subcultured onto TSA for MBC determination. MIC and MBC determination can be found in Table 2 and 3. Control isolates were obtained from the American Type Culture Collection (ATCC) and were as follows: Methicillin-resistant S. epidermidis (MRSE ATCC 35984); MSSA (ATCC 35556) and, VRE (ATCC 2030).

[2] = system: Methicillin-resistant S. aureus (clinical isolate from blood); experiment: Broth dilution MIC/MBC vs methicillin-resistant S. aureus; format: cell-based; details: Staphylococcus aureus, MRSA (clinical isolate from blood); for MBC: 99.9% kill after 24 h
From the text: as §1, §2

[3] = system: Enterococcus faecalis (ATCC 29212); experiment: Broth dilution MIC/MBC vs E. faecalis ATCC strain; format: cell-based; details: ATCC29212, EF^1: E. faecalis (ATCC 29212)
From the text: as §1, §2

[4] = system: Enterococcus faecalis (clinical isolate from rectal swab); experiment: Broth dilution MIC/MBC vs E. faecalis clinical isolate; format: cell-based; details: EF^2: E. faecalis (clinical isolate from rectal swab)
From the text: as §1, §2

[5] = system: Vancomycin-resistant Enterococcus faecium (clinical isolate obtained from tissue); experiment: Broth dilution MIC/MBC vs vancomycin-resistant E. faecium; format: cell-based; details: VRE
From the text: as §1, §2

[6] = system: Vancomycin-resistant Enterococcus faecalis (clinical isolate from rectal swab); experiment: Broth dilution MIC/MBC vs vancomycin-resistant E. faecalis; format: cell-based; details: VRE
From the text: as §1, §2

[7] = system: E. faecalis and vancomycin-resistant E. faecium; experiment: Antibacterial activity vs panel of pathogenic Enterococci, stated in words; format: cell-based; details: against E. faecalis and vancomycin-resistant E. faecium
From the text: as §1, with “The MIC was defined as the lowest concentration of an antimicrobial agent visually inhibiting more than 99% of the colonies.” left out
(§3) Minimum inhibitory concentrations (MIC) were determined in duplicate using methods outlined by The Clinical and Laboratory Standards Institute. […] Colony counts for the inoculum verification was determined using Tryptic Soy Agar plates (TSA, Difco, Becton Dickinson Co., Sparks, Md., USA). […]

[8] = system: Staphylococcus epidermis (ATCC 25984); experiment: Broth dilution MIC/MBC vs Staphylococcus epidermis; format: cell-based; details: ATCC25984
From the text: as §1, with “The MIC was defined as the lowest concentration of an antimicrobial agent visually inhibiting more than 99% of the colonies.” left out
as §3

S. aureus strains = experiment: Antibacterial activity vs S. aureus strains, stated in words; format: cell-based, Staphylococcus aureus
From the text: as §1, with “The MIC was defined as the lowest concentration of an antimicrobial agent visually inhibiting more than 99% of the colonies.” left out
as §3

Question: For `CCCC/C=C/C(=O)N[C@@H](Cc1cccc(F)c1)C(=O)N[C@H]1COC(=O)[C@@H]2CCCN2C(=O)[C@H](C)NC(=O)[C@@H]2CC(C)CCN2C(=O)[C@@H]2CCCN2C1=O` (some centres unmarked) [Compound 10c] ({Heptenoyl(2E)}-[Phe(3-F)]SP[X1]AP; ester 2-C), which MIC [1] is on record?
Answer: 0.6 µg/mL (≈ 0.797 µM)

Question: And the MBC [1]?
Answer: 0.6 µg/mL (≈ 0.797 µM)

Question: What about the “antibacterial activity compared with compound 10a” value ([1]; against MSSA, in words) of the same compound?
Answer: better activity than compound 10a

Question: What about the MIC [2] of the same compound?
Answer: 0.6 µg/mL (≈ 0.797 µM)

Question: What about the MBC [2] of the same compound?
Answer: 2.4 µg/mL (≈ 3.19 µM)

Question: And the MBC [3]?
Answer: 0.08 µg/mL (≈ 0.106 µM)

Question: What about the MIC [3] of the same compound?
Answer: 0.04 µg/mL (≈ 0.0531 µM)

Question: And the MBC [4]?
Answer: 0.04 µg/mL (≈ 0.0531 µM)

Question: And the MIC [4]?
Answer: 0.02 µg/mL (≈ 0.0266 µM)

Question: And the MBC [5]?
Answer: 0.08 µg/mL (≈ 0.106 µM)

Question: What about the MIC [5] of the same compound?
Answer: 0.04 µg/mL (≈ 0.0531 µM)

Question: And the MBC [6]?
Answer: 0.04 µg/mL (≈ 0.0531 µM)

Question: And the MIC [6]?
Answer: 0.04 µg/mL (≈ 0.0531 µM)

Question: What about the “antibacterial activity compared with compound 10a” value [7] of the same compound?
Answer: more potent activity

Question: Which MIC [1] does the source give for `CCCC/C=C/C(=O)N[C@@H](Cc1cccc(F)c1)C(=O)N[C@H]1COC(=O)[C@@H]2CCCN2C(=O)[C@H](C)NC(=O)C2(CCC2)N(C)C(=O)[C@@H]2CCCN2C1=O` [Compound 10f] ({Heptenoyl(2E)}-[Phe(3-F)]SP[NMeAc4c]AP; ester 2-C) here?
Answer: 312 µg/mL (≈ 422 µM)

Question: And the MBC [1]?
Answer: > 312 µg/mL

Question: And the MIC [2]?
Answer: > 312 µg/mL

Question: And the MBC [2]?
Answer: > 312 µg/mL

Question: Which results are given for `CCCC/C=C/C(=O)N[C@@H](Cc1cccc(F)c1)C(=O)N[C@H]1COC(=O)[C@@H]2CCCN2C(=O)[C@H](C)NC(=O)C2(CCCC2)N(C)C(=O)[C@@H]2CCCN2C1=O` [Compound 10g] ({Heptenoyl(2E)}-[Phe(3-F)]SP[NMeAc5c]AP; ester 2-C)?
Answer: MIC [1]: 39.1 µg/mL (≈ 51.9 µM); MBC [1]: > 312 µg/mL; MIC [2]: > 312 µg/mL; MBC [2]: > 312 µg/mL

Question: Which MIC [1] does the source give for `CCCC/C=C/C(=O)N[C@@H](Cc1cccc(F)c1)C(=O)N[C@H]1COC(=O)[C@@H]2CCCN2C(=O)[C@H](C)NC(=O)[C@@H]2CCCCN2C(=O)[C@@H]2CCCN2C1=O` [Compound 10a] here?
Answer: 1.25 µg/mL (≈ 1.69 µM)

Question: What about the MBC [1] of the same compound?
Answer: 1.25 µg/mL (≈ 1.69 µM)

Question: And the MIC [2]?
Answer: 1.25 µg/mL (≈ 1.69 µM)

Question: What about the MBC [2] of the same compound?
Answer: 1.25 µg/mL (≈ 1.69 µM)

Question: And the MBC [3]?
Answer: 1.25 µg/mL (≈ 1.69 µM)

Question: And the MIC [3]?
Answer: 0.16 µg/mL (≈ 0.217 µM)

Question: What about the MBC [4] of the same compound?
Answer: 0.04 µg/mL (≈ 0.0541 µM)

Question: And the MIC [4]?
Answer: 0.04 µg/mL (≈ 0.0541 µM)

Question: And the MBC [5]?
Answer: 0.08 µg/mL (≈ 0.108 µM)

Question: And the MIC [5]?
Answer: 0.08 µg/mL (≈ 0.108 µM)

Question: And the MBC [6]?
Answer: 0.04 µg/mL (≈ 0.0541 µM)

Question: And the MIC [6]?
Answer: 0.04 µg/mL (≈ 0.0541 µM)

Question: And the MBC [8]?
Answer: 1.25 µg/mL (≈ 1.69 µM)

Question: What about the MIC [8] of the same compound?
Answer: 1.25 µg/mL (≈ 1.69 µM)

Question: What about the antibacterial activity (S. aureus strains) of the same compound?
Answer: exhibited the expected antibacterial activity

Question: With `CCCC/C=C/C(=O)N[C@@H](Cc1cccc(F)c1)C(=O)N[C@H]1COC(=O)[C@@H]2CCCN2C(=O)[C@H](C)NC(=O)C(CC)(CC)N(C)C(=O)[C@@H]2CCCN2C1=O` [Compound 10e] ({Heptenoyl(2E)}-[Phe(3-F)]SP[X3]AP; ester 2-C) as the compound, how does the MIC [1] read?
Answer: 78.1 µg/mL (≈ 103 µM)

Question: And the MBC [1]?
Answer: > 312 µg/mL

Question: What about the MIC [2] of the same compound?
Answer: > 312 µg/mL

Question: What about the MBC [2] of the same compound?
Answer: > 312 µg/mL

Question: `CCCC/C=C/C(=O)N[C@@H](Cc1cccc(F)c1)C(=O)N[C@H]1COC(=O)[C@@H]2CCCN2C(=O)[C@H](C)NC(=O)C2(CCCCC2)N(C)C(=O)[C@@H]2CCCN2C1=O` [Compound 10h] ({Heptenoyl(2E)}-[Phe(3-F)]SP[NMeAc6c]AP; ester 2-C) was tested. Which MIC [1] did it give?
Answer: 39.1 µg/mL (≈ 51 µM)

Question: What about the MBC [1] of the same compound?
Answer: > 312 µg/mL

Question: What about the MIC [2] of the same compound?
Answer: > 312 µg/mL

Question: What about the MBC [2] of the same compound?
Answer: > 312 µg/mL

Question: For `CCCC/C=C/C(=O)N[C@@H](Cc1cccc(F)c1)C(=O)N[C@H]1COC(=O)[C@@H]2CCCN2C(=O)[C@H](C)NC(=O)[C@H]2CCCCN2C(=O)[C@@H]2CCCN2C1=O` [Compound 10b], which MIC [1] is on record?
Answer: > 312 µg/mL

Question: What about the MBC [1] of the same compound?
Answer: > 312 µg/mL

Question: What about the MIC [2] of the same compound?
Answer: > 312 µg/mL

Question: What about the MBC [2] of the same compound?
Answer: > 312 µg/mL

Question: Which MIC [1] does the source give for `CCCC/C=C/C(=O)N[C@@H](Cc1cccc(F)c1)C(=O)N[C@H]1COC(=O)[C@@H]2CCCN2C(=O)[C@H](C)NC(=O)[C@H]2CC(C)CCN2C(=O)[C@@H]2CCCN2C1=O` (some centres unmarked) [Compound 10d] ({Heptenoyl(2E)}-[Phe(3-F)]SP[X2]AP; ester 2-C) here?
Answer: > 156 µg/mL

Question: And the MBC [1]?
Answer: > 156 µg/mL

Question: What about the MIC [2] of the same compound?
Answer: > 156 µg/mL

Question: What about the MBC [2] of the same compound?
Answer: 0.156 µg/mL (≈ 0.207 µM)
